Assay results taken from PubChem BioAssay AID248 (DTP/NCI, 2004).
Values joined by “and” are separate entries in the source; they are usually repeats but may differ in a detail not shown here. Equal entries are not always repeated. Inconclusive results and toxic doses are left out. Rule as the data show it: active = T/C of 150% or more; inactive = T/C below 125%.

Test system: L1210 leukemia ip in BDF1 mice, survival T/C
Experiment: NCI In Vivo Anticancer Drug Screen. Data for tumor model L1210 Leukemia (intraperitoneal) in B6D2F1 (BDF1) mice
Conditions: endpoint: mean survival time, higher = longer survival
How it was run: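 Survival endpoint. Drug-treated group vs vehicle group, expressed as T divided by C. Tumor passaged by transplantation.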

[1] = dose: 400.0 mg/kg/injection, schedule: Q01DX001 (ip), vehicle: saline
[2] = dose: 100.0 mg/kg/injection, schedule: Q04DX003 (ip), vehicle: Klucel (hydroxypropylcellulose) (HPC)
[3] = dose: 200.0 mg/kg/injection, schedule: Q04DX003 (ip), vehicle: Klucel (hydroxypropylcellulose) (HPC)
[4] = dose: 400.0 mg/kg/injection, schedule: Q04DX003 (ip), vehicle: Klucel (hydroxypropylcellulose) (HPC)
[5] = dose: 12.5 mg/kg/injection, schedule: Q04DX002 (ip), vehicle: Klucel (hydroxypropylcellulose) (HPC)

Measured: T/C

CC1CN1C1=C(Cl)C(=O)C(N2CC2C)=C(Cl)C1=O (configuration not stated)
inactive: dose: 0.78 mg/kg/injection, schedule: Q01DX009 (ip), vehicle: Klucel (hydroxypropylcellulose) (HPC) 104 % of control | dose: 1.56 mg/kg/injection, schedule: Q01DX009 (ip), vehicle: Klucel (hydroxypropylcellulose) (HPC) 105 % of control | dose: 3.12 mg/kg/injection, schedule: Q01DX009 (ip), vehicle: Klucel (hydroxypropylcellulose) (HPC) 102 % of control | dose: 6.25 mg/kg/injection, schedule: Q01DX009 (ip), vehicle: Klucel (hydroxypropylcellulose) (HPC) 96 % of control | dose: 12.5 mg/kg/injection, schedule: Q01DX009 (ip), vehicle: Klucel (hydroxypropylcellulose) (HPC) 107 % of control

CCOC(=O)c1ccccc1NC(=O)c1ccccc1
inactive: dose: 100.0 mg/kg/injection, schedule: Q04DX002 (ip), vehicle: Klucel (hydroxypropylcellulose) (HPC) 100 % of control | dose: 200.0 mg/kg/injection, schedule: Q04DX002 (ip), vehicle: Klucel (hydroxypropylcellulose) (HPC) 103 % of control | dose: 400.0 mg/kg/injection, schedule: Q04DX002 (ip), vehicle: Klucel (hydroxypropylcellulose) (HPC) 103 % of control

CN(C)c1ccc(/C=N/NC(=O)c2cccc3ccccc23)c(Cl)c1
inactive: [1] 90 % of control

O=C(Nc1cnccn1)C(F)(F)F
inactive: dose: 100.0 mg/kg/injection, schedule: Q01DX001 (ip), vehicle: saline 105 % of control | dose: 200.0 mg/kg/injection, schedule: Q01DX001 (ip), vehicle: saline 97 % of control | [1] 105 % of control

O=S(=O)(OCCCC1CC2C=CC1C2)c1ccc(Br)cc1 (configuration not stated)
inactive: dose: 75.0 mg/kg/injection, schedule: Q01DX001 (ip), vehicle: carboxymethylcellulose (CMC) 104 % of control | dose: 75.0 mg/kg/injection, schedule: Q04DX003 (ip), vehicle: carboxymethylcellulose (CMC) 89 % of control | dose: 150.0 mg/kg/injection, schedule: Q01DX001 (ip), vehicle: carboxymethylcellulose (CMC) 91 % of control | dose: 150.0 mg/kg/injection, schedule: Q04DX003 (ip), vehicle: carboxymethylcellulose (CMC) 100 % of control | dose: 300.0 mg/kg/injection, schedule: Q04DX003 (ip), vehicle: carboxymethylcellulose (CMC) 98 % of control

CC(=O)C1CCCCC1
inactive: dose: 100.0 mg/kg/injection, schedule: Q04DX003 (ip), vehicle: saline with Tween-80 107 % of control | dose: 200.0 mg/kg/injection, schedule: Q04DX003 (ip), vehicle: saline with Tween-80 109 % of control | dose: 400.0 mg/kg/injection, schedule: Q04DX003 (ip), vehicle: saline with Tween-80 96 % of control

[Cl][Ni][Cl].[NH-]CCN1CC1.[NH-]CCN1CC1
inactive: dose: 1.75 mg/kg/injection, schedule: Q01DX009 (ip), vehicle: saline 101 % of control | dose: 3.5 mg/kg/injection, schedule: Q01DX009 (ip), vehicle: saline 97 % of control | dose: 7.0 mg/kg/injection, schedule: Q01DX009 (ip), vehicle: saline 103 % of control | dose: 14.0 mg/kg/injection, schedule: Q01DX009 (ip), vehicle: saline 98 % of control

COC(=O)c1sc2ccccc2c1CC#N
inactive: dose: 100.0 mg/kg/injection, schedule: Q01DX001 (ip), vehicle: carboxymethylcellulose (CMC) 103 % of control | dose: 200.0 mg/kg/injection, schedule: Q01DX001 (ip), vehicle: carboxymethylcellulose (CMC) 86 % of control | dose: 400.0 mg/kg/injection, schedule: Q01DX001 (ip), vehicle: carboxymethylcellulose (CMC) 103 % of control

Cn1c2c(c(=O)n(C)c1=O)C(C(=O)O)CC(=O)N2 (configuration not stated)
inactive: dose: 100.0 mg/kg/injection, schedule: Q01DX009 (ip), vehicle: Klucel (hydroxypropylcellulose) (HPC) 103 % of control | [2] 103 % of control | dose: 200.0 mg/kg/injection, schedule: Q01DX009 (ip), vehicle: Klucel (hydroxypropylcellulose) (HPC) 102 % of control | [3] 102 % of control | dose: 400.0 mg/kg/injection, schedule: Q01DX009 (ip), vehicle: Klucel (hydroxypropylcellulose) (HPC) 100 % of control | [4] 110 % of control

NC(Cc1c[nH]c2ccccc12)C(=O)O (configuration not stated)
inactive: dose: 100.0 mg/kg/injection, schedule: Q01DX001 (ip), vehicle: saline with Tween-80 95 % of control | dose: 100.0 mg/kg/injection, schedule: Q01DX009 (ip), vehicle: saline 100 % of control | dose: 200.0 mg/kg/injection, schedule: Q01DX001 (ip), vehicle: saline with Tween-80 98 % of control | dose: 200.0 mg/kg/injection, schedule: Q01DX009 (ip), vehicle: saline 94 % of control | dose: 300.0 mg/kg/injection, schedule: Q01DX001 (ip), vehicle: saline with Tween-80 92 % of control | dose: 400.0 mg/kg/injection, schedule: Q01DX009 (ip), vehicle: saline 94 % of control | dose: 800.0 mg/kg/injection, schedule: Q01DX009 (ip), vehicle: saline 94 % of control

C=C1C(=O)OC2CC(C)C3CC(OCCCl)OC(OCCCl)C3(C)CC12 (configuration not stated)
inactive: dose: 1.25 mg/kg/injection, schedule: Q01DX005 (ip), vehicle: other 104 % of control | dose: 2.5 mg/kg/injection, schedule: Q01DX005 (ip), vehicle: other 106 % of control | dose: 5.0 mg/kg/injection, schedule: Q01DX005 (ip), vehicle: other 101 % of control | dose: 10.0 mg/kg/injection, schedule: Q01DX005 (ip), vehicle: other 101 % of control | dose: 20.0 mg/kg/injection, schedule: Q01DX005 (ip), vehicle: other 113 % of control

O=[N+]([O-])/C=C/c1c(O)c(Cl)cc(Cl)c1Cl
inactive: [5] 92 % of control | dose: 25.0 mg/kg/injection, schedule: Q04DX002 (ip), vehicle: Klucel (hydroxypropylcellulose) (HPC) 92 % of control | dose: 50.0 mg/kg/injection, schedule: Q04DX002 (ip), vehicle: Klucel (hydroxypropylcellulose) (HPC) 95 % of control

Cc1nc(CCl)no1
inactive: dose: 100.0 mg/kg/injection, schedule: Q04DX002 (ip), vehicle: saline with Tween-80 104 % of control | dose: 200.0 mg/kg/injection, schedule: Q04DX002 (ip), vehicle: saline with Tween-80 95 % of control

COc1ccc2c(c1)CC1c3[nH]c4ccccc4c3CCN1C2 (configuration not stated)
inactive: dose: 100.0 mg/kg/injection, schedule: Q01DX001 (ip), vehicle: Klucel (hydroxypropylcellulose) (HPC) 94 % of control | dose: 200.0 mg/kg/injection, schedule: Q01DX001 (ip), vehicle: Klucel (hydroxypropylcellulose) (HPC) 92 % of control

C#CC1(OC(O)C(Cl)(Cl)Cl)CCCCC1 (configuration not stated)
inactive: dose: 100.0 mg/kg/injection, schedule: Q04DX003 (ip), vehicle: saline 103 % of control | dose: 200.0 mg/kg/injection, schedule: Q04DX003 (ip), vehicle: saline 106 % of control | dose: 400.0 mg/kg/injection, schedule: Q04DX003 (ip), vehicle: saline 103 % of control

CCOC(=O)c1c(C)[nH]c(C)c1-c1ccccc1
inactive: [2] 112 % of control | [3] 104 % of control | [4] 105 % of control

CCCCCCCCC(=O)N(CCCC)CCCC
inactive: dose: 100.0 mg/kg/injection, schedule: Q01DX009 (ip), vehicle: carboxymethylcellulose (CMC) 97 % of control and 100 % of control | dose: 100.0 mg/kg/injection, schedule: Q04DX002 (ip), vehicle: carboxymethylcellulose (CMC) 94 % of control | dose: 200.0 mg/kg/injection, schedule: Q01DX009 (ip), vehicle: carboxymethylcellulose (CMC) 93 % of control and 100 % of control | dose: 200.0 mg/kg/injection, schedule: Q04DX002 (ip), vehicle: carboxymethylcellulose (CMC) 93 % of control | dose: 400.0 mg/kg/injection, schedule: Q01DX009 (ip), vehicle: carboxymethylcellulose (CMC) 89 % of control | dose: 400.0 mg/kg/injection, schedule: Q04DX002 (ip), vehicle: carboxymethylcellulose (CMC) 93 % of control

COC(=O)[CH]([Hg][CH](C(=O)OC)C(=O)OC)C(=O)OC
inactive: dose: 3.12 mg/kg/injection, schedule: Q04DX002 (ip), vehicle: Klucel (hydroxypropylcellulose) (HPC) 88 % of control | dose: 6.25 mg/kg/injection, schedule: Q04DX002 (ip), vehicle: Klucel (hydroxypropylcellulose) (HPC) 98 % of control | [5] 91 % of control
